The text below walks through data of patent US6403652B1, “Method and composition” (Colgate-Palmolive Company, priority 2000, dated 2002).

Values after ≈ are worked out from the molar mass of the structure shown. Read-outs that look alike come from different tables or passages of the source. A value given as a limit tells only on which side of the number the result lay.

Common to all, as to type: cell-based
One experiment has as its system Staphylococcus Aureus. Briefly: MIC by Broth Dilution Method against Staphylococcus Aureus. To be noted: 37° C., visible growth. On the procedure:
Antimicrobial activity of several compounds was measured by determining the minimum inhibitory concentration (MIC). MIC is defined as the lowest concentration of an antimicrobial agent that will inhibit the growth of a microorganism and is usually expressed as ppm (μg/mL). MIC was determined by the Broth Dilution Method. To determine MIC a series of culture tubes was prepared, each tube containing the growth medium (Broth) with a decreasing concentration of the antimicrobial agent. The tubes were then inoculated with the test organism and incubated at 37° C. After incubation, tubes were visually examined for growth as indicated by turbidity. The lowest concentration that prevented visible growth is the MIC.

In experiment [1] the test system is Staphylococcus Aureus isolate SA6 (susceptible to all drugs). The experiment can be described thus: MIC in multiwell plate broth dilution, isolate SA6. The procedure: (§1) 1. The following Staphylococcus Aureus isolates were tested:
(§2) 2. 2-t-butyl-5-(4-t-butylphenyl)-phenol (DTBBP) was dissolved in ethanol to a concentration of 1000 μg/mL. Higher concentrations could not be tested due to the formation of precipitate in the broth when higher concentrations were attempted.
(§3) 3. 100 μl of the 32 μg/ml solution added to column 12 of the multiwell plates, 50 μl M—H broth to each of the other columns. 50 μl removed from 12 to 11 for 1:1 dilution, continued to column 2. 50 μl removed from column 2 and discarded. Column 1 contained no drug. To control for the amount of ethanol added to each well, additional wells were set up as described above without DTBBP but with the same amount of ethanol as the test wells.
(§4) 4. 50 μl bacteria added to each well going from column 1 to column 12. All isolates run in duplicate with and without DTBBP.
(§5) 5. Addition of 50 μl bacteria to 50 μl drug dilutes both 1:1 for a final bacterial density of 5×10^5/ml and drug concentrations of:
(§6) 6. Incubated overnight at 37° C.

Experiment [2] relates to Staphylococcus Aureus isolate SA15 (susceptible). Briefly: MIC in multiwell plate broth dilution, isolate SA15. The procedure:
as §1, §2, §3, §4, §5, §6

The test system of experiment [3] is Staphylococcus Aureus isolate SA76 (resistant to methicillin, azithromycin, clarithromycin, erythromycin, ciprofloxacin). Briefly: MIC in multiwell plate broth dilution, isolate SA76. On the procedure: as §1, §2, §3, §4, §5, §6
A short description of experiment [4]: MIC in multiwell plate broth dilution, isolate SA22. As to conditions: Staphylococcus aureus. The procedure:
as §1, §2, §3, §4, §5, §6

The subject of experiment [5] is Staphylococcus Aureus isolate SA100 (resistant to methicillin only). The experiment can be described thus: MIC in multiwell plate broth dilution, isolate SA100. On the procedure:
as §1, §2, §3, §4, §5, §6

Experiment [6] deals with Staphylococcus Aureus isolate SA124 (susceptible). Briefly: MIC in multiwell plate broth dilution, isolate SA124. The procedure:
as §1, §2, §3, §4, §5, §6

For the compound `CCCCCCCCc1ccc(O)c(C(C)(C)C)c1` [2-t-butyl-4-n-octylphenol], the minimal inhibitory concentration (MIC) with Staphylococcus Aureus is less than 10 µg/mL.

`CC(C)(C)c1ccc(C2CCC(C(C)(C)C)CC2)cc1O` (stereo not shown) [2-t-butyl-5-(4-t-butylcyclohexyl)-phenol] came in with an MIC in the experiment with Staphylococcus Aureus of less than 10 µg/mL.

Regarding `CC(C)(C)c1ccc(-c2ccc(C(C)(C)C)c(O)c2)cc1` [DTBBP, 2-t-butyl-5-(4-t-butylphenyl)-phenol], the MIC amounted to 2 µg/mL (≈ 7.08 µM) in experiment [1] (isolate SA6, 24 hr, read-out: DTBBP MIC (24 hr)); 4 µg/mL (≈ 14.2 µM) in experiment [1] (isolate SA6, 48 hr, read-out: DTBBP MIC (48 hr)); 2 µg/mL (≈ 7.08 µM) in experiment [2] (isolate SA15, 24 hr, read-out: DTBBP MIC (24 hr)); 4 µg/mL (≈ 14.2 µM) in experiment [2] (isolate SA15, 48 hr, read-out: DTBBP MIC (48 hr)); 2 µg/mL (≈ 7.08 µM) in experiment [3] (isolate SA76, 24 hr, read-out: DTBBP MIC (24 hr)); 4 µg/mL (≈ 14.2 µM) in experiment [3] (isolate SA76, 48 hr, read-out: DTBBP MIC (48 hr)). The MIC in experiment [4] (isolate SA22, 24 hr, read-out: DTBBP MIC (24 hr)) was 2 µg/mL (≈ 7.08 µM); in experiment [4] (isolate SA22, 48 hr, read-out: DTBBP MIC (48 hr)), 2 µg/mL (≈ 7.08 µM); in the experiment on Staphylococcus Aureus, less than 1 µg/mL; in experiment [5] (isolate SA100, 24 hr, read-out: DTBBP MIC (24 hr)), 4 µg/mL (≈ 14.2 µM); in experiment [5] (isolate SA100, 48 hr, read-out: DTBBP MIC (48 hr)), 4 µg/mL (≈ 14.2 µM); in experiment [6] (isolate SA124, 24 hr, read-out: DTBBP MIC (24 hr)), 2 µg/mL (≈ 7.08 µM). In addition, the MIC in experiment [6] (isolate SA124, 48 hr, read-out: DTBBP MIC (48 hr)) is 4 µg/mL (≈ 14.2 µM).

Regarding `CC(C)(C)c1cc(C2CCCCC2)ccc1O` [2-t-butyl-4-cyclohexylphenol], in the experiment on Staphylococcus Aureus, the MIC is less than 10 µg/mL.
